From patent publication US20250026742A1 (SUZHOU ARK BIOPHARMACEUTICAL CO., LTD., priority 2021, published 2025)
Where a name gives a salt, the structure may show the parent alone.

Biological target: ATR kinase (Homo sapiens (Human), UniProt Q13535)
Assay: ATR enzyme activity inhibition assay (HTRF)
Format: biochemical
Details: p53 substrate, full-length ATR enzyme
Method: The inhibitory ability to ATR kinase for selected compounds was tested by the HTRF (Homogeneous Time-Resolved Fluorescence). In the reaction system, After the substrate p53 is phosphorylated by ATR, the anti-phospho-p53-Eu that serves as an energy donor and specifically binds to the phosphorylation site on p53 is added. Then, the anti-GST-d2 as an energy acceptor that specifically binds to the GST tag carried on p53 is added. […] The IC50 of the sample to be tested can be obtained through graphing and calculation.
Prepare various buffer systems required for the experiment: • 1. […] Prepare detection buffer: Dilute each of the anti-phospho-p53-Eu cryptate (Cisbio, Cat #61P08KA) and anti-GST-d2 (Cisbio, Cat #61GSTDLB) to 1 unit using HTRF detection buffer (Cisbio, Cat #62SDBRDF).
Powdered compounds were dissolved in DMSO to from a stock solution at a concentration of 10 mM. The solution of compounds to be tested at a concentration of […] was performed a 3-fold dilution for 10 concentrations with DMSO. […] 5 μL of ATR was added to each well accordingly. Each well is incubated at 25° C. for 10 min, added with 5 μL of reaction substrate, incubated at 25° C. for 90 min and added with 10 μL of detection solution. […] The inhibition curves of the compounds were made by the four-parameter […] regression equation of XLfit software, and the inhibition rates of the compounds were calculated.

Sequence of ATR kinase (Q13535 whole entry): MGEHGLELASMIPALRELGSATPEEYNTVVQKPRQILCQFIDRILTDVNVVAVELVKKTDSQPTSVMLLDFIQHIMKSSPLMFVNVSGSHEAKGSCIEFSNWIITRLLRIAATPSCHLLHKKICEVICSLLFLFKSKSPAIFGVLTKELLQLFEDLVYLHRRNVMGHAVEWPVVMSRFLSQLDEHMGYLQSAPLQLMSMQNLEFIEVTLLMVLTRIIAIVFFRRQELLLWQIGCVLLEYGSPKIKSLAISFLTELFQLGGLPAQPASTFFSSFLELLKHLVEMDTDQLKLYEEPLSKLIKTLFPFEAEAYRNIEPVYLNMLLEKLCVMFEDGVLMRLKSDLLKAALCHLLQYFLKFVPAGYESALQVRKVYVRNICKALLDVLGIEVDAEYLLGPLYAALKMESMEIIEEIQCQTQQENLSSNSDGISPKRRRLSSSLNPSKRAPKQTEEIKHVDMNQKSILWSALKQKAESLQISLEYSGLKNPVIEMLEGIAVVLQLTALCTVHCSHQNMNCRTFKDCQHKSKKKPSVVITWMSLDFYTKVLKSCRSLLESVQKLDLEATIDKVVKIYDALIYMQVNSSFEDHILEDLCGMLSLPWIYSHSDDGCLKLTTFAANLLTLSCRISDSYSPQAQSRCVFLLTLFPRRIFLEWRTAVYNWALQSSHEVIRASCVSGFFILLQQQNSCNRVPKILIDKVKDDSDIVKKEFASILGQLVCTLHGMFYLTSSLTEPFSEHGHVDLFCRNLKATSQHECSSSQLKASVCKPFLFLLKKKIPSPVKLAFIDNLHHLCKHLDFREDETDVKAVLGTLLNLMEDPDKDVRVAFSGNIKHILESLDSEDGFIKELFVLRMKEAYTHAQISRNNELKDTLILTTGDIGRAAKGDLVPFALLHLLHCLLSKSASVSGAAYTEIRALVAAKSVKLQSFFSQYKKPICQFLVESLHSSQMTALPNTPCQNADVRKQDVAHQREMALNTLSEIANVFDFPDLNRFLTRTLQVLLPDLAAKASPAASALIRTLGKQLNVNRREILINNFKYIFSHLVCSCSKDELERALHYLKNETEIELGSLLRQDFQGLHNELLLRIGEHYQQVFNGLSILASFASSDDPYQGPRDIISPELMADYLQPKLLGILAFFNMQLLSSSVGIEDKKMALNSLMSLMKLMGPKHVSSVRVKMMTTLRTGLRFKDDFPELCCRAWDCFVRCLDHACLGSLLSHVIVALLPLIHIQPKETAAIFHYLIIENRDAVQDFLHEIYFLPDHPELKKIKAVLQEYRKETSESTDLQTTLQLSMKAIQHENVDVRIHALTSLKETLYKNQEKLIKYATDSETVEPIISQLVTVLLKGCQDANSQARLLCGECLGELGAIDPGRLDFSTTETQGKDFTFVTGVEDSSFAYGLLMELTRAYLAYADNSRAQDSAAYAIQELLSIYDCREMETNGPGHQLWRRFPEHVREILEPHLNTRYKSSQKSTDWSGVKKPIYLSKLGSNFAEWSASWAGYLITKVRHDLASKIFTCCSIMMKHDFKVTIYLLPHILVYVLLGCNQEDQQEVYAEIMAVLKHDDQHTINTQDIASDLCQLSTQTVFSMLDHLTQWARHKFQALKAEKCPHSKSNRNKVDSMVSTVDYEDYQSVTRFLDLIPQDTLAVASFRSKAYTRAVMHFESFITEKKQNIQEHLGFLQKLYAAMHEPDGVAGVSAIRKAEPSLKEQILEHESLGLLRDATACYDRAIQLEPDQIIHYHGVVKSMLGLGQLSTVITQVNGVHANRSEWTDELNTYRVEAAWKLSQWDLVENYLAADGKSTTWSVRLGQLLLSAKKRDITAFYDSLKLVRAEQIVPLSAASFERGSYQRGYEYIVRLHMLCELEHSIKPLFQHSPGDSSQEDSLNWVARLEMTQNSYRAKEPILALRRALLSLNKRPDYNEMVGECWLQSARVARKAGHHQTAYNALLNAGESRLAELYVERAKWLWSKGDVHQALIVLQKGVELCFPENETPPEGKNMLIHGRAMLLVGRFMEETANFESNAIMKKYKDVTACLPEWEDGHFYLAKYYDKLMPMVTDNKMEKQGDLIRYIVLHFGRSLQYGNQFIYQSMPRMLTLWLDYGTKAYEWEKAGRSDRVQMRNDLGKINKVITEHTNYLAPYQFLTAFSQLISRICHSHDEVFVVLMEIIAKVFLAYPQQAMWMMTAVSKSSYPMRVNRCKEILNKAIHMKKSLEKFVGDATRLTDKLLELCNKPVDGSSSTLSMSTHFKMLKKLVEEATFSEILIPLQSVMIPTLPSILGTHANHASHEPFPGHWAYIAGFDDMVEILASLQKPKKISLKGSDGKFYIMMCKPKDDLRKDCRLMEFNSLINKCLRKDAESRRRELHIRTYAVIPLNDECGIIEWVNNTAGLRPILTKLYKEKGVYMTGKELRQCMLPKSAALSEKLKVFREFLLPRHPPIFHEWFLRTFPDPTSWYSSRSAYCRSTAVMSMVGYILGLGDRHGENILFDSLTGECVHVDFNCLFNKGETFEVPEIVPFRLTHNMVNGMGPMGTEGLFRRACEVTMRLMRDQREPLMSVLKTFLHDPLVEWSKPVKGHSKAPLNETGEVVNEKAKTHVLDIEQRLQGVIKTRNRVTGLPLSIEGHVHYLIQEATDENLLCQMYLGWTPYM
Sequence of ATR kinase (Q8WXE1 whole entry partner): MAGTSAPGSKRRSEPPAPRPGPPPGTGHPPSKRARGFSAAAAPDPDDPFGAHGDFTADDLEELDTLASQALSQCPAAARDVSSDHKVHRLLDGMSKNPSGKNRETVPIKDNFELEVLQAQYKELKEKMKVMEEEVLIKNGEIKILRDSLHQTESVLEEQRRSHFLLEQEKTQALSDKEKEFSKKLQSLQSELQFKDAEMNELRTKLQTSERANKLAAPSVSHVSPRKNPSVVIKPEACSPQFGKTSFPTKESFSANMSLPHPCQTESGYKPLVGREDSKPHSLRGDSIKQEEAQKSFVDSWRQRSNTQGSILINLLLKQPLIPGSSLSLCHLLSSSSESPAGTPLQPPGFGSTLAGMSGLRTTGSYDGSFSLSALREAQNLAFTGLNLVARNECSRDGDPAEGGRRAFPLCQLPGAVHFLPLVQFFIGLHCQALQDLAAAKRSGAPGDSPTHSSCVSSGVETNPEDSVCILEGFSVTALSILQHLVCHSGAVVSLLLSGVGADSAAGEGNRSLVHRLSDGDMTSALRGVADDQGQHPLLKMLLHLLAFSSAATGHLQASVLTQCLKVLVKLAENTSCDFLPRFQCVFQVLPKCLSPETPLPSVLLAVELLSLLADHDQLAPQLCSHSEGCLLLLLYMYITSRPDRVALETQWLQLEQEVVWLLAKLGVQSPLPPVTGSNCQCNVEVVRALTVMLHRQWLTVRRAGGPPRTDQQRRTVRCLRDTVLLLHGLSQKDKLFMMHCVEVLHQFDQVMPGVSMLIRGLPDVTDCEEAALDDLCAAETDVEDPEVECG

| Compound | IC50 |
| --- | --- |
| CCNC(=O)NCc1ccc(-c2cc(-c3nc(-c4ccc(S(=O)(=O)C(C)C)cc4)cnc3N)on2)cc1 [Example 6, 1-(4-(5-(3-amino-6-(4-(isopropylsulfonyl)phenyl)pyrazin-2-yl)isoxazol-3-yl)benzyl)-3-ethylurea] | 2.9 nM |
| CC(=N)NCc1ccc(-c2cc(-c3nc(-c4ccc(S(=O)(=O)C(C)C)cc4)cnc3N)on2)cc1 [Example 28, N-(4-(5-(3-amino-6-(4-(isopropylsulfonyl)phenyl)pyrazin-2-yl)isoxazol-3-yl)benzyl)acetamidine dihydrochloride] | 1.29 nM |
| (R)-5-(5-amino-6-(3-(4-((methylamino)methyl)phenyl)isoxazol-5-yl)pyrazin-2-yl)-3-fluoro-2,2-dimethyl-2,3-dihydrobenzo[b]thiophene 1,1-dioxide or (S)-5-(5-amino-6-(3-(4-((methylamino)methyl)phenyl)isoxazol-5-yl)pyrazin-2-yl)-3-fluoro-2,2-dimethyl-2,3-dihydrobenzo[b]thiophene 1,1-dioxide [Example 35-1 or 35-2] | 0.41 nM |
| CC(C)S(=O)(=O)c1ccc(-c2cnc(N)c(-c3cc(-c4ccc5[nH]nnc5c4)no3)n2)cc1 [Example 3, 3-(3-(1H-benzo[d][1,2,3]triazol-5-yl)isoxazol-5-yl)-5-(4-(isopropylsulfonyl)phenyl)pyrazin-2-amine] | 1.6 nM |
| CN(C)S(=O)(=O)c1ccc(-c2cnc(N)c(-c3cc(-c4ccc(CNC(=N)N)cc4)no3)n2)cc1 [Example 10, 4-(5-amino-6-(3-(4-(guanidinomethyl)phenyl)isoxazol-5-yl)pyrazin-2-yl)-N,N-dimethylbenzenesulfonamide dihydrochloride] | 1.75 nM |
| CC(C)S(=O)(=O)c1ccc(-c2cnc(N)c(-c3cc(-c4ccc(CNC(=N)N)cc4C(F)(F)F)no3)n2)cc1 [Example 30, 1-(4-(5-(3-amino-6-(4-(isopropylsulfonyl)phenyl)pyrazin-2-yl)isoxazol-3-yl)-3-(trifluoromethyl)benzyl)guanidine dihydrochloride] | 3.35 nM |
| CNCc1ccc(-c2nnc(-c3nc(-c4ccc5c(c4)C(F)C(C)(C)S5(=O)=O)cnc3N)s2)cc1 (stereo not drawn) [Example 37, 5-(5-amino-6-(5-(4-((methylamino)methyl)phenyl)-1,3,4-thiadiazol-2-yl)pyrazin-2-yl)-3-fluoro-2,2-dimethyl-2,3-dihydrobenzo[b]thiophene 1,1-dioxide] | 0.77 nM |
| CC(C)S(=O)(=O)c1ccc(-c2cnc(N)c(-c3cc(-c4ccc(CNC(=O)NC5CC5)cc4)no3)n2)cc1 [Example 5, 1-(4-(5-(3-amino-6-(4-(isopropylsulfonyl)phenyl)pyrazin-2-yl)isoxazol-3-yl)benzyl)-3-cyclopropylurea] | 2.32 nM |
| CC(C)S(=O)(=O)c1ccc(-c2cnc(N)c(-c3cc(-c4c(F)cc(CNC(=N)N)cc4F)no3)n2)cc1 [Example 11, 1-(4-(5-(3-amino-6-(4-(isopropylsulfonyl)phenyl)pyrazin-2-yl)isoxazol-3-yl)-3,5-difluorobenzyl)guanidine dihydrochloride] | 0.82 nM |
| CC(C)S(=O)(=O)c1ccc(-c2cnc(N)c(-c3cc(-c4ccc(C(=O)NC(=N)N)cc4)no3)n2)cc1 [Example 26, dihydrochloride] | 2.06 nM |
| CNCc1ccc(-c2cc(-c3nc(-c4ccc(S(=N)(=O)C(C)C)cc4)cnc3N)on2)cc1 (stereo not drawn) [Example 2, (4-(5-amino-6-(3-(4-((methylamino)methyl)phenyl)isoxazol-5-yl)pyrazin-2-yl)phenyl)(imino)(isopropyl)-λ^6-sulfoxide] | 2.79 nM |
| CCNC(=N)Nc1ccc(-c2cc(-c3nc(-c4ccc(S(=O)(=O)C(C)C)cc4)cnc3N)on2)cc1 [Example 18, 1-(4-(5-(3-amino-6-(4-(isopropylsulfonyl)phenyl)pyrazin-2-yl)isoxazol-3-yl)phenyl)-3-ethylguanidine dihydrochloride] | 1.16 nM |
| CC(C)S(=O)(=O)c1ccc(-c2cnc(N)c(-c3cc(-c4ccc(NC(=N)N)cc4)no3)n2)cc1 [Example 16, 1-(4-(5-(3-amino-6-(4-(isopropylsulfonyl)phenyl)pyrazin-2-yl)isoxazol-3-yl)phenyl)guanidine] | 9.74 nM |
| CNC(=O)NCc1ccc(-c2cc(-c3nc(-c4ccc(S(=O)(=O)C(C)C)cc4)cnc3N)on2)cc1 [Example 7, 1-(4-(5-(3-amino-6-(4-(isopropylsulfonyl)phenyl)pyrazin-2-yl)isoxazol-3-yl)benzyl)-3-methylurea] | 1.04 nM |
| CN=S(=O)(c1ccc(-c2cnc(N)c(-c3cc(-c4ccc(CNC(=N)N)cc4)no3)n2)cc1)C(C)C (stereo not drawn) [Example 13, 1-(4-(5-(3-amino-6-(4-(N-methylpropan-2-yl-sulfonimido)phenyl)pyrazin-2-yl)isoxazol-3-yl)benzyl)guanidine dihydrochloride] | 1.68 nM |
| CNCc1ccc(-c2cc(-c3nc(-c4ccc5c(c4)C(F)C(C)(C)S5(=O)=O)cnc3N)on2)cc1 (stereo not drawn) [Example 32, 5-(5-amino-6-(3-(4-((methylamino)methyl)phenyl)isoxazol-5-yl)pyrazin-2-yl)-3-fluoro-2,2-dimethyl-2,3-dihydrobenzo[b]thiophene 1,1-dioxide] | 2.09 nM |
| CNC(=N)Nc1ccc(-c2cc(-c3nc(-c4ccc(S(=O)(=O)C(C)C)cc4)cnc3N)on2)cc1 [Example 17, 1-(4-(5-(3-amino-6-(4-(isopropylsulfonyl)phenyl)pyrazin-2-yl)isoxazol-3-yl)phenyl)-3-methylguanidine dihydrochloride] | 0.93 nM |

Next, values leading:

| IC50 | Compound |
| --- | --- |
| 3.64 nM | CC(C)S(=O)(=O)c1ccc(-c2cnc(N)c(-c3cc(-c4ccc(CNS(N)(=O)=O)cc4)no3)n2)cc1 [Example 8, 3-(3-(4-((aminosulfonyl)aminomethylene)phenyl)isoxazol-5-yl)-5-(4-(isopropylsulfonyl)phenyl)pyrazin-2-amine] |
| 1.98 nM | CN(C)C(=O)c1ccc(-c2cnc(N)c(-c3cc(-c4ccc(CNC(=N)N)cc4)no3)n2)cc1 [Example 25, 4-(5-amino-6-(3-(4-(guanidinomethyl)phenyl)isoxazol-5-yl)pyrazin-2-yl)-N,N-dimethylbenzamide dihydrochloride] |
| 2 nM | CC(C)S(=O)(=O)c1ccc(-c2cnc(N)c(-c3cc(-c4ccc(NC(N)=O)cc4)no3)n2)cc1 [Example 15, 1-(4-(5-(3-amino-6-(4-(isopropylsulfonyl)phenyl)pyrazin-2-yl)isoxazol-3-yl)phenyl)urea] |
| 1.31 nM | CC(C)S(=O)(=O)c1ccc(-c2cnc(N)c(-c3cc(-c4ccc5[nH]c(=O)[nH]c5c4)no3)n2)cc1 [Example 21, 5-(5-(3-amino-6-(4-(isopropylsulfonyl)phenyl)pyrazin-2-yl)isoxazol-3-yl)-1,3-dihydro-2H-benzo[d]imidazol-2-one] |
| 1.21 nM | CC(C)S(=N)(=O)c1ccc(-c2cnc(N)c(-c3cc(-c4ccc5[nH]c(=O)[nH]c5c4)no3)n2)cc1 (stereo not drawn) [Example 22, 5-(5-(3-amino-6-(4-(propan-2-ylsulfonimido)phenyl)pyrazin-2-yl)isoxazol-3-yl)-1,3-dihydro-benzimidazol-2-one dihydrochloride] |
| 4 nM | CC(C)S(=O)(=O)c1ccc(-c2cnc(N)c(-c3cc(-c4ccc5c(c4)CNC5=O)no3)n2)cc1 [Example 31] |
| 1.81 nM | CNC(=N)Nc1ccc(-c2cc(-c3nc(-c4ccc(S(=O)(=O)C(C)C)cc4)cnc3N)on2)c(F)c1 [Example 20, 1-(4-(5-(3-amino-6-(4-(isopropylsulfonyl)phenyl)pyrazin-2-yl)isoxazol-3-yl)-3-fluorophenyl)-3-methylguanidine dihydrochloride] |
| 0.7 nM | N=C(N)NCc1ccc(-c2cc(-c3nc(-c4ccc(S(=O)(=O)C5CC5)cc4)cnc3N)on2)cc1 [Example 23, 1-(4-(5-(3-amino-6-(4-(cyclopropylsulfonyl)phenyl)pyrazin-2-yl)isoxazol-3-yl)benzyl)guanidine dihydrochloride] |
| 0.75 nM | N=C(N)NCc1ccc(-c2cc(-c3nc(-c4ccc5c(c4)CCS5(=O)=O)cnc3N)on2)cc1 [Example 27, 1-(4-(5-(3-amino)-6-(1,1-dioxo-2,3-dihydrobenzo[b]thiophen-5-yl)pyrazin-2-yl)isoxazol-3-yl)benzyl)guanidine dihydrochloride] |
| 0.57 nM | CN1CCC(NCc2ccc(-c3nnc(-c4nc(-c5ccc6c(c5)C(F)C(C)(C)S6(=O)=O)cnc4N)o3)cc2)CC1 (stereo not drawn) [Example 36] |
| 0.97 nM | CC(C)S(=O)(=O)c1ccc(-c2cnc(N)c(-c3cc(-c4ccc(CNC(=N)N)cc4)no3)n2)cc1 [Example 1, 1-(4-(5-(3-amino-6-(4-(isopropylsulfonyl)phenyl)pyrazin-2-yl)isoxazol-3-yl)benzyl)guanidine dihydrochloride] |
| 1.08 nM | CC(C)S(=O)(=O)c1ccc(-c2cnc(N)c(-c3cc(-c4ccc(CNC(=N)N)c(F)c4)no3)n2)cc1 [Example 24, 1-(4-(5-(3-amino-6-(4-(isopropylsulfonyl)phenyl)pyrazin-2-yl)isoxazol-3-yl)-2-fluorobenzyl)guanidine dihydrochloride] |
| 1.26 nM | CNC(=N)Nc1ccc(-c2cc(-c3nc(-c4ccc(S(=O)(=O)C(C)C)cc4)cnc3N)on2)nc1 [Example 19, 1-(6-(5-(3-amino-6-(4-(isopropylsulfonyl)phenyl)pyrazin-2-yl)isoxazol-3-yl)pyridin-3-yl)-3-methylguanidine dihydrochloride] |
